According to ChEMBL document CHEMBL1133966, “Substituted imidazoles as glucagon receptor antagonists” (Bioorg Med Chem Lett, 2001):

Key:
Glucagon receptor [1] = molecular target: T1, Glucagon receptor (Homo sapiens, UniProt P47871); assay: Binding affinity towards human glucagon receptor in absence of Mg2+ expressed as IC50
Glucagon receptor [2] = molecular target: T1, Glucagon receptor; assay: Affinity for human glucagon receptor in presence of Mg2+
MAP kinase p38 [3] = molecular target: T2, MAP kinase p38 (Homo sapiens, UniProt O15264+Q15759+Q16539+P53778); assay: Binding affinity towards human Mitogen-activated protein kinase p38 expressed as IC50; assay type: protein assay
Glucagon receptor [4] = molecular target: T1, Glucagon receptor; assay: Affinity for human glucagon receptor in absence of Mg2+; design: concentration or dose not given beside the values; details: concentration not given here
Glucagon receptor [5] = molecular target: T1, Glucagon receptor; assay: Binding affinity towards human glucagon receptor in absence of Mg2+; details: concentration not given here
MAP kinase p38 [6] = molecular target: T2, MAP kinase p38; assay: Inhibition of human Mitogen-activated protein kinase p38 at 40 uM; assay type: protein assay

T1 sequence (P47871 whole entry): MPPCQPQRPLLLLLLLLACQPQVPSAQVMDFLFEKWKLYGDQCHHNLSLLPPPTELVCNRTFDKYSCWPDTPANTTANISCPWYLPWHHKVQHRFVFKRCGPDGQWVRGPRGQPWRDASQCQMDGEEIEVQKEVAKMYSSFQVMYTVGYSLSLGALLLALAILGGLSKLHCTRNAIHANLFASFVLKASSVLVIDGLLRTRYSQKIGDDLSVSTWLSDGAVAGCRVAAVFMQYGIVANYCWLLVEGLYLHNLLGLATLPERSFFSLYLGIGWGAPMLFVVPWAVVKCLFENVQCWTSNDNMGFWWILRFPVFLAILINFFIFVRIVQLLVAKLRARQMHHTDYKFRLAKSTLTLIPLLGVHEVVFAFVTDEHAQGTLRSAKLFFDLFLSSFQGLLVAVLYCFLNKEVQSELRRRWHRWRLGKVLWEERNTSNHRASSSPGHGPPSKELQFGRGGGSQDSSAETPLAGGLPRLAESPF

| IC50 (Glucagon receptor [1]) | IC50 (Glucagon receptor [2]) | IC50 (MAP kinase p38 [3]) | inhibition (Glucagon receptor [4]) | inhibition (Glucagon receptor [5]) | inhibition (MAP kinase p38 [6]) | SMILES |
| --- | --- | --- | --- | --- | --- | --- |
| 400 nM | 3200 nM | 80 nM |  |  |  | Fc1ccc(-c2[nH]c(-c3ccc(Cl)cc3)nc2-c2ccncc2)cc1 |
| 510 nM |  | 100 nM |  |  |  | Fc1ccc(-c2[nH]c(-c3ccc(I)cc3)nc2-c2ccncc2)cc1 |
| 130 nM | 750 nM | 140 nM |  |  |  | Clc1ccc(-c2nc(-c3ccc(I)cc3)c(-c3ccncc3)[nH]2)cc1 |
| > 20000 nM |  |  |  |  |  | Fc1ccc(-c2nc(-c3ccccc3)[nH]c2-c2ccncc2)cc1 |
| 27 nM | 110 nM | 250 nM |  |  |  | Clc1ccc(-c2nc(-c3ccc(Oc4ccccc4)cc3)c(-c3ccncc3)[nH]2)cc1 |
|  |  |  |  | < 20% |  | Oc1ccc(-c2nc(-c3ccc(F)cc3)c(-c3ccncc3)[nH]2)cc1 |
| 1400 nM |  | 150 nM |  |  |  | Fc1ccc(-c2[nH]c(-c3cccc(Br)c3)nc2-c2ccncc2)cc1 |
|  |  | 2200 nM | 37% |  |  | Brc1ccc(-c2nc(-c3ccccc3)c(-c3ccccc3)[nH]2)cc1 |
| 140 nM | 3800 nM | 3300 nM |  |  |  | Clc1ccc(-c2nc(-c3ccc(-c4ccccc4)cc3)c(-c3ccncc3)[nH]2)cc1 |
| 270 nM | 2900 nM | 160 nM |  |  |  | Fc1ccc(-c2[nH]c(-c3ccc(Br)cc3)nc2-c2ccncc2)cc1 |
|  |  | 100 nM | 24% |  |  | Oc1ccc(-c2[nH]c(-c3ccc(Br)cc3)nc2-c2ccccc2)cc1 |
| 1300 nM |  | 90 nM |  |  |  | Cc1ccc(-c2nc(-c3ccc(F)cc3)c(-c3ccncc3)[nH]2)cc1 |
| 190 nM | 2200 nM | 23 nM |  |  |  | Clc1ccc(-c2nc(-c3ccc(Cl)cc3)c(-c3ccncc3)[nH]2)cc1 |
| 782 nM |  | 40 nM |  |  |  | Brc1ccc(-c2nc(-c3ccccc3)c(-c3ccncc3)[nH]2)cc1 |
| 10000 nM |  | 300 nM |  |  |  | Fc1ccc(-c2[nH]c(-c3ccc(-c4ccccc4)cc3)nc2-c2ccncc2)cc1 |
|  |  | 90 nM |  | < 20% |  | Fc1ccc(-c2[nH]c(-c3ccccc3Br)nc2-c2ccncc2)cc1 |

Continued, molecule first:

| SMILES | IC50 (Glucagon receptor [1]) | IC50 (Glucagon receptor [2]) | IC50 (MAP kinase p38 [3]) | inhibition (Glucagon receptor [4]) | inhibition (Glucagon receptor [5]) | inhibition (MAP kinase p38 [6]) |
| --- | --- | --- | --- | --- | --- | --- |
| Fc1ccc(-c2[nH]c(-c3ccc(Br)s3)nc2-c2ccncc2)cc1 | 2200 nM |  | 110 nM |  |  |  |
| Cc1cnccc1-c1[nH]c(-c2ccc(Cl)cc2)nc1-c1ccc(F)cc1 | 1100 nM |  | 20 nM |  |  |  |
| CC(C)c1ccc(-c2nc(-c3ccc(F)cc3)c(-c3ccncc3)[nH]2)cc1 | 700 nM |  | 280 nM |  |  |  |
| Clc1ccc(-c2nc(-c3cccc(Oc4ccccc4)c3)c(-c3ccncc3)[nH]2)cc1 | 13 nM | 150 nM | 220 nM |  |  |  |
| CCCCc1ccc(-c2[nH]c(-c3ccc(Cl)cc3)nc2-c2ccncc2)cc1 | 74 nM | 150 nM | > 10000 nM |  |  |  |
| N#Cc1ccc(-c2nc(-c3ccncc3)c(-c3ccc(F)cc3)[nH]2)cc1 | 8000 nM |  | 210 nM |  |  |  |
| Clc1ccc(-c2nc(-c3ccccc3Oc3ccccc3)c(-c3ccncc3)[nH]2)cc1 | 6.5 nM | 290 nM | 150 nM |  |  |  |
| Fc1ccc(-c2[nH]c(-c3ccc(Br)o3)nc2-c2ccncc2)cc1 |  |  | 190 nM | < 20% |  |  |
| CSc1ccc(-c2nc(-c3ccncc3)c(-c3ccc(F)cc3)n2C)cc1 |  |  | 860 nM | 38% |  |  |
| CCCCOc1ccc(-c2[nH]c(-c3ccc(Cl)cc3)nc2-c2ccncc2)c(OCCCC)c1 | 6.5 nM | 53 nM |  |  |  | 20% |
| Cc1cc(-c2[nH]c(-c3ccc(Cl)cc3)nc2-c2ccc(F)cc2)ccn1 |  |  | 50 nM | 38% |  |  |
| Fc1ccc(-c2[nH]c(-c3cc(Br)cs3)nc2-c2ccncc2)cc1 | 2800 nM |  | 100 nM |  |  |  |
| Clc1ccc(-c2nc(-c3cccc(-c4ccccc4)c3)c(-c3ccncc3)[nH]2)cc1 | 61 nM | > 3000 nM | 590 nM |  |  |  |
| CSc1ccc(-c2nc(-c3ccc(F)cc3)c(-c3ccncc3)o2)cc1 |  |  | 930 nM | -8% |  |  |
| CC(C)(C)c1ccc(-c2[nH]c(-c3ccc(Cl)cc3)nc2-c2ccncc2)cc1 | 130 nM | 3400 nM | > 10000 nM |  |  |  |
| CCCOc1ccc(-c2[nH]c(-c3ccc(Cl)cc3)nc2-c2ccncc2)c(OCCC)c1 | 13 nM | 120 nM | 2400 nM |  |  |  |
| Fc1ccc(-c2[nH]c(-c3cccc4ccccc34)nc2-c2ccncc2)cc1 | 1500 nM |  | 340 nM |  |  |  |
| Fc1ccc(-c2[nH]c(CCc3ccccc3)nc2-c2ccncc2)cc1 |  |  | 130 nM | < 20% |  |  |
| CSc1ccc(-c2nc(-c3ccc(F)cc3)c(-c3ccncc3)n2C)cc1 |  |  | 520 nM | 10% |  |  |
| CCCCOc1ccccc1-c1[nH]c(-c2ccc(Cl)cc2)nc1-c1ccncc1 | 8.5 nM | 110 nM | > 1000 nM |  |  |  |
